Activity calls are given as the source filed them. The rule behind the calls is not given here.
Key:
Staphylococcus aureus = assay: Antibacterial activity against Staphylococcus aureus ATCC 25923 at […]; type: functional, organism-based
Escherichia coli = assay: Antibacterial activity against Escherichia coli ATCC 25922 at […]; type: functional, organism-based

Row | Compound | Activity (Staphylococcus aureus) | Activity (Escherichia coli)
1 | CC[C@H]1OC(=O)[C@H](C)[C@@H](O[C@H]2C[C@@](C)(OC)[C@@H](O)[C@H](C)O2)[C@H](C)[C@@H](O[C@@H]2O[C@H](C)C[C@H]3[C@H]2OC(=O)N3C)[C@](C)(OC)C[C@@H](C)C(=O)/C(C)=C/[C@]1(C)O | inactive | inactive
2 | CC[C@H]1OC(=O)[C@H](C)C(=O)[C@H](C)[C@@H](O[C@@H]2O[C@H](C)C[C@H]3[C@H]2OC(=O)N3C)[C@](C)(OC)C[C@@H](C)C(=O)[C@H](C)[C@@H]2OC(=O)O[C@]12C | inactive | inactive
3 | C=CCOC(=O)O[C@H]1[C@H](C)O[C@@H](O[C@H]2[C@H](C)[C@@H](O[C@@H]3O[C@H](C)C[C@H]4[C@H]3OC(=O)N4C)[C@](C)(OC)C[C@@H](C)C(=O)[C@H](C)[C@@H]3OC(=O)O[C@]3(C)[C@@H](CC)OC(=O)[C@@H]2C)C[C@@]1(C)OC | inactive | inactive
4 | CC[C@H]1OC(=O)[C@H](C)[C@@H](O[C@H]2C[C@@](C)(OC)[C@@H](O)[C@H](C)O2)[C@H](C)[C@@H](O[C@@H]2O[C@H](C)C[C@H]3[C@H]2OC(=O)N3C)[C@](C)(OC)C[C@@H](C)C(=O)[C@H](C)[C@@H]2OC(=O)O[C@]12C | inactive | inactive
5 | CC[C@H]1OC(=O)[C@H](C)[C@@H](O)[C@H](C)[C@@H](O[C@@H]2O[C@H](C)C[C@H]3[C@H]2OC(=O)N3C)[C@](C)(OC)C[C@@H](C)C(=O)[C@H](C)[C@@H]2OC(=O)O[C@]12C | inactive | inactive
6 | CC[C@H]1OC(=O)[C@H](C)C(=O)[C@H](C)[C@@H](O[C@@H]2O[C@H](C)C[C@H]3[C@H]2OC(=O)N3C)[C@](C)(OC)C[C@@H](C)C(=O)[C@H](C)[C@@H]2N(c3ccc(N4CCOCC4)c(F)c3)C(=O)O[C@@]21C | inactive | inactive
7 | C=CCOC(=O)O[C@H]1[C@H](C)[C@@H](O[C@@H]2O[C@H](C)C[C@H]3[C@H]2OC(=O)N3C)[C@](C)(OC)C[C@@H](C)C(=O)[C@H](C)[C@@H]2OC(=O)O[C@]2(C)[C@@H](CC)OC(=O)[C@@H]1C | inactive | inactive

From ChEMBL document CHEMBL1143028, “Preparation of cyclic 2',3'-carbamate derivatives of erythromycin macrolide antibiotics” (Bioorg Med Chem, 2007)
